Data from patent US20100305120A1, “COMPOUNDS FOR TREATING MUSCULAR DYSTROPHY” (BIOMARIN IGA LIMITED, priority 2008, published 2010).

System: Utrophin A promoter linked to a luciferase reporter gene
Experiment: Luciferase reporter assay (murine H2K cells), H2K/mdx/Utro A reporter cell line
Type: cell-based
Details: 48 h; test compound concentration 10 μM; mdx mouse H2K Utrophin A reporter cells; read-out: Activity (luciferase level relative to control)
Procedure, shortened: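 Immortalized mdx mouse H2K myoblasts stably carrying ~5 kb utrophin A promoter–luciferase construct, kept at 33 °C, 10% CO2. Compound added 24 h after plating, typically at 10 μM final, for 48 h; luciferase measured by cell lysis and luminescence.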

| SMILES | activity at 10 µM [%] |
| --- | --- |
| O=C(Nc1ccc2c(c1)OCCO2)c1nn(Cc2ccc(C(=O)N3CCOCC3)cc2)c2ccc(F)cc12 [Compound 160, N-(2,3-dihydrobenzo[b][1,4]dioxin-6-yl)-5-fluoro-1-(4-(morpholine-4-carbonyl)benzyl)-1H-indazole-3-carboxamide] | < 200 |
| O=C(Nc1ccc2c(c1)OC(F)(F)C(F)(F)O2)c1nn(Cc2ccc(C(=O)N3CCOCC3)cc2)c2ccccc12 [Compound 161, 1-(4-(morpholine-4-carbonyl)benzyl)-N-(2,2,3,3-tetrafluoro-2,3-dihydrobenzo[b][1,4]dioxin-6-yl)-1H-indazole-3-carboxamide] | 201 to 300 |
| O=C(Nc1ccc2c(c1)OCCO2)c1nn(Cc2ccc(C(=O)N3CCOCC3)cc2)c2cc(F)ccc12 [Compound 162, N-(2,3-dihydrobenzo[b][1,4]dioxin-6-yl)-6-fluoro-1-(4-(morpholine-4-carbonyl)benzyl)-1H-indazole-3-carboxamide] | 201 to 300 |
| O=C(Nc1ccc2c(c1)OCCO2)c1nn(Cc2ccc(C(=O)N3CCOCC3)cc2)c2cc(C(F)(F)F)ccc12 [Compound 163, N-(2,3-dihydrobenzo[b][1,4]dioxin-6-yl)-1-(4-(morpholine-4-carbonyl)benzyl)-6-(trifluoromethyl)-1H-indazole-3-carboxamide] | < 200 |
